According to patent US6821761B2, “Sphingolipid ceramide N-deacylase, methods for producing sphingolipids and sphingolipid derivatives, and sphingolipid ceramide N-deacylase gene” (Takara Bio, Inc., priority 1994, dated 2004):

Columns and labels:
[1] = system: Limulus polyphemus ceramidase; test: Ceramidase activity of Limulus polyphemus serum / purified ceramidase on ceramide substrates; assay type: biochemical
Procedure: A 10 μl of serum obtained by centrifugation of Limulus polyphemus blood was allowed to undergo 18 hours of reaction at 37° C. with 10 μl of 50 mM acetate buffer (pH 5.0) containing 1 nmol of NBD ceramide prepared in Example 21 and 0.5% Triton X-100. After completion of the reaction, the reaction solution was developed on thin layer chromatography (developing solvent: chloroform/methanol/25% liquid ammonia=90/20/0.5 by volume) and detected under an ultraviolet ray lamp.
In order to confirm that the ceramidase activity found in the Limulus polyphemus serum is really a ceramidase-derived activity, the ceramidase was purified to find that it was an acidic ceramidase having an optimum pH of 4.5 and a molecular weight of about 205 kDa when measured by a gel filtration method.

[2] = system: ceramidase in B16 cells; test: Measurement of ceramidase activity in B16 cells with labeled ceramide substrates; assay type: biochemical; details: B16 cell suspension, 50 μg protein, 0.5% Triton X-100, 37° C. 3 or 6 hours; FIG. 16
Procedure: Measurement of ceramidase activity in B16 cells using radioisotope labeled ^14C ceramide (C12−^14C-Cer) and fluorescent sphingolipid derivative NBD ceramide (C12-NBD-Cer) as the substrate:
A cell suspension was prepared by suspending 6×10^6 of B16 cells in 200 μl of 10 mM phosphate buffer. The amount of the protein was determined using MicroBCA™ protein assay reagent (manufactured by Pierce).
Under acidic condition in 10 μl of 50 MM acetate buffer (pH 4.0) containing 10 μl of the cell suspension (diluted to a protein content of 50 μg), 200 pmol of C12-NBD-Cer obtained in Example 21 or 100 pmol of C12−^14C-Cer obtained using lauric acid instead of palmitic acid used in Example 20, as the substrate, and 0.5% Triton X-100. […]
Each of the samples was developed on thin layer chromatography (developing solvent, chloroform/methanol/25% liquid ammonia =90/20/0.5 by volume), and the released ^14C fatty acid was determined using BAS 1000 Imaging Analyzer (manufactured by Fuji Photo Film) to calculate the reaction ratio. Also, the released NBD fatty acid was determined using Chromatoscanner CS 9000 (manufactured by Shimadzu Corporation), and the reaction ratio was calculated.

[3] = system: SCDase; test: Substrate specificity (hydrolysis) of purified SCDase from Pseudomonas sp. TK-4; assay type: biochemical; details: 10 nmol sphingolipid, 2 milliunits enzyme, 37° C. 16 h, 20 mM sodium acetate buffer pH 5.0, 0.8% Triton X-100, TLC
Procedure: The enzyme activity of the SCDase is assayed in the following manner. To 10 μl of a substrate solution [50 mM acetate buffer solution (pH 6.0) containing 2 mM of asialo GM1 and 0.6% (w/v) of Triton X-100] is added 10 μl of an enzyme solution. After reacting at 37° C. for 30 minutes, the enzyme reaction is ceased by heating the mixture to 100° C. for 3 minutes. Then the reaction mixture is concentrated to dryness with a centrifugal concentrator. Then the obtained concentrate is dissolved in 10 μl of 50% methanol and placed on a TLC plate (silica gel 60; manufactured by Merck & Co., Inc.). After developing with chloroform/methanol/0.02% aqueous solution of CaCl2 (5/4/1 by volume), the sphingolipid is subjected to color development by the orcinol-sulfuric acid method. […] This spot is determined by using a TLC chromatoscanner (Shimadzu CS-9000, manufactured by Shimadzu Corporation) at a wavelength of 540 nm.
Sphingolipids (10 nmol each) were incubated at 37° C. for 16 h with 2 milliunits of the enzyme in 20 μl of 20 mM sodium acetate buffer, pH 5.0, containing 0.8% Triton X-100. The extent of hydrolysis was examined by TLC and calculated.

[4] = system: crude SCDase; test: Substrate specificity of crude SCDase (culture supernatant) from Shewanella alga NS-589; assay type: biochemical; details: SCDase produced by Shewanella alga NS-589
Source text: Acting on acidic glycolipids (GM1, GM2, GD1a, GD1b, sialosyl paragloboside, etc.), neutral glycolipids (lactosyl ceramide, Gb4, Gb5, etc.), sulfated glycolipids (sulfatide, etc.) and sphingomyelin which is a sphingophospholipid, thus forming the corresponding lysosphingolipid and fatty acid in each case.
The substrate specificity was examined as follows. Shewanella alga NS-589 was inoculated into a synthetic medium (dipotassium hydrogenphosphate 0.05%, ammonium chloride 0.05%, sphingomyelin 0.1%, sodium taurodeoxycholate 0.1%, sodium chloride 2%, 2,6-O-dimethyl-β-cyclodextrin 0.1%; pH 7.4). Two days after shaking cultivation at 30° C., the strain was removed to obtain a supernatant by centrifuge. A 50 mM acetate buffer ([…]; pH 6.0) containing 3 μl of the supernatant and 1.6% Triton X-100 was allowed to react with 5 μl of 1.2 mM of each of sphingolipids shown in Table 2 at 37° C. for 16 hours, and then the resulting mixture was analyzed with a thin layer chromatography.
The digestion ratios of various substrates by a crude SCDase obtained from Shewanella alga NS-589.

[5] = system: Shewanella alga NS-589; test: Conversion of sphingomyelin into sphingosylphosphorylcholine by culture of Shewanella alga NS-589; assay type: cell-based; details: synthetic medium, sphingomyelin 0.1%, 30° C. shaking 2 days, TLC
Procedure: Shewanella alga NS-589 was inoculated into 200 ml of a synthetic medium (dipotassium hydrogenphosphate 0.05%, ammonium chloride 0.05%, sphingomyelin 0.1%, sodium taurodeoxycholate 0.1%, sodium chloride 2%, 2,6-O-dimethyl-β-cyclodextrin 0.1%; pH 7.4) and incubated therein at 30° C. under shaking for 2 days.
Then the cells were eliminated by centrifuging the culture medium to obtain the culture supernatant which was then analyzed by thin layer chromatography. […] This culture medium was added to a C18 reversed phase column [Preoperative C18 125A (manufactured by Millipore), packing: 30 g, column diameter: 30 mm, open column]. After desalting and washing with 300 ml of water, the column was eluted with 300 ml of methanol and 300 ml of chloroform/methanol=1/1 (by volume). Then the sphingosylphosphorylcholine was eluted into the methanol fraction. After removing the solvent in the sphingosylphosphorylcholine fraction with a rotary evaporator, the residue was added to a silica gel 60 column (manufactured by Merck) and fractionated with chloroform/methanol/water=5/4/1 (by volume). Further, the solvent in the sphingosylphosphorylcholine fraction thus obtained was removed with a rotary evaporator and the residue was freeze-dried. Thus 47.6 mg of purified sphingosylphosphorylcholine could be obtained.

[6] = system: SCDase derived from the genus Pseudomonas; test: Fatty acid exchange reaction on various acceptors by SCDase; assay type: biochemical; details: 1 nmol [1-14C] stearic acid, 1 nmol sphingolipid, 30 μU SCDase, acetate buffer pH 6.0, 0.8% Triton X-100, overnight 37° C., galactosyl ceramide = 100
Procedure: A 10 μl portion of 50 mM acetate buffer (pH 6.0) containing 1 nmol [1−^14C] stearic acid, 1 nmol sphingolipid, 0.8% Triton X-100 and 30 μU SCDase derived from the genus Pseudomonas was allowed to react overnight at 37° C.
The thus obtained reaction solution was developed on thin layer chromatography and exposed to an imaging plate to carry out determination of the reaction product by BAS 1000 Imaging Analyzer (manufactured by Fuji Photo Film).

CCCCCCCCCCCCC/C=C/[C@@H](O)[C@H](CO)NC(=O)CCCCCCCCCCCCCCCCC [N-stearoylsphingosine (C18:0, d18:1), N-stearoylsphingosine]
Hydrolysis by purified Limulus polyphemus ceramidase (substrate preference) ([1]; purified ceramidase): most efficiently

CCCCCCCCCCCCC/C=C/[C@@H](O)[C@H](CO)NC(=O)CCCCCCCCCCCNc1ccc([N+](=O)[O-])c2nonc12 [NBD ceramide]
Hydrolysis of substrate by Limulus polyphemus serum (ceramidase activity) ([1]; 1 nmol substrate, 10 μl serum, acetate buffer pH 5.0, 0.5% Triton X-100, 18 hours 37° C., TLC under UV): a newly formed NBD aminododecanoic acid was detected | Action of acidic ceramidase in B16 cells on substrate [2]: hardly | Action of alkaline ceramidase in B16 cells on substrate [2]: acts well

Sphingomyelin
Digestion ratio (%) [3]: 28% | Substrate specificity: acting on the substrate, forming the corresponding lysosphingolipid and fatty acid [4]: Acting on | Sphingomyelin converted into sphingosylphosphorylcholine [5]: 80% | Relative activity (%) [6]: 2.9%
